Measured values from US20060167229A1, “Biologically active peptide conjugates” (priority 2002, published 2006).
Marks after values point to notes of the source that are not given here. Ends that are not written are not given here.

Columns and labels:
B16 melanoma = experiment: Melanoma lung metastasis foci after inoculation of B16 melanoma cells; type: in vivo, C57BL/6 mice
Experimental: Intraperitoneal injection, once per day. […] Treatment of all groups with testing substance lasted for 30 days or until the animal died unless otherwise specified. […] The cell concentration was adjusted to 1×10^5 per ml with Hank's solution and 0.1 ml of the cell suspension was injected via the tail vein into the testing mice to generate the B16 melanoma bearing animal model. Treatment with test substance started as described in section Method 1. […] Postmortem Examination of the Animals was Performed. The Pathological Changes were Recorded, and the Numbers of Melanoma Lung Metastasis Foci Were Counted. Results

[1] = system: ascitic fluid type liver cancer H22; experiment: Survival of mice with transplanted ascitic fluid type liver cancer H22; type: in vivo, BALB/c mice; details: for Survival days: saline 26.2 ± 6.8
Experimental: (§1) Intraperitoneal injection, once per day. […] Treatment of all groups with testing substance lasted for 30 days or until the animal died unless otherwise specified.
Stock H22 cells were incubated in DMEM/F12 medium supplemented with 10% fetal bovine serum, 37° C./5% CO2 for 72 hrs, then washed 3-4 times with Hank's solution at room temperature. Adjust cell concentration to 1-2×10^9 per litre with Hank's solution. 0.2 ml of the cell suspension was implanted to the abdominal cavity of several BALB/c mice for 6-8 days. The mice were killed by cervical vertebra dislocation. Ascitic fluid of the mice was collected aseptically and the cell concentration adjusted to 1×10^6 per ml with Hank's solution. 0.2 ml of the cell suspension was implanted into the abdominal cavity of healthy mice to generate the H22 carrying mouse model for ascitic fluid type liver cancer. Administration of test substance started as described in section Method 1. Survival data of the mice was recorded. If the animal survived longer than the experiment, the survival days was recorded as the duration of the experiment. Mean survival day was obtained by the Kaplan-meier method in the Survival option of the SPSS software. The survival index was calculated according to the following formula: Survival index=(mean survival days in treatment group−mean survival days of control group)÷mean survival days of control group×100% 4. The Effect of Peptides on the Cellular Immunity of BALB/c Mice with Transplanted Ascitic Fluid Type Liver Cancer H22 4.1 Preparation of Spleen Cell Suspension^[1,4]

[2] = system: Duck Hepatitis B Virus (DHBV); experiment: Chongqing duck hepatitis B model, serum DHBV DNA by dot-blot hybridization; type: in vivo, Chongqing ducks
Experimental: Chongqing duck hepatitis B model was set up and treated with peptides by intraperitoneal injection (50 μg/kg/day, once per day) for 4 weeks. The serum level of DHBV DNA was analyzed by serum dot-blot hybridization. Lamivudine and normal saline treatment was used as positive and negative control respectively. […] It is concluded that CMS001 at suitable dosage level can be used as a part, or on its own, for viral hepatitis infection management. One-day old Chongqing ducks were inoculated with 0.1 ml stock serum positive of Duck Hepatitis B Virus (DHBV) DNA (5×10^7 copy/ml) by intraperitoneal injection. One week later, blood samples were collected from the external jugular vein and infection was confirmed by dot-blot hybridization with DHBV DNA probe labeled with digoxin^[2]. The ducks were breed to 2 weeks old for entrance into the study. […] Treatment lasted for 4 weeks and observation continued for another one week after termination of treatment. 1 ml blood samples were drawn from the external jugular vein of the ducks on days 0, 7, 14, 21, 28, and 35 when treatment started. Sera of the blood samples were isolated immediately^[3] and stored at −20° C. until analysis. 4. Serum DHBV DNA Level Determinations DHBV DNA probe was fluorescent labeled according to the labeling kit protocol from the kit manufacturer (Amersham Pharmacia Biotech Co.). 40 μl duck sera were dot-blotted (1 duplicated dot per sample) onto nitro-cellulose membrane and hybridized with fluorescent-labeled DHBV DNA probe for quantitation^[2]. After completion of hybridization, the blots were developed in CDP-Star fluorimetry reagent RPN3690 and scanned with Vuego Scan (Brisa-620st) scanner. ImageMaster TotalLab v1.11.Ink software was used for quantitative analysis of the blots. Statistical analysis was carried out according to the pair t-test with SPSS software.

mononuclear phagocyte = experiment: Phagocytotic function of mononuclear phagocyte in mice with transplanted S180 sarcoma; type: in vivo, BALB/c mice; details: saline 5.38 ± 0.85
Experimental: as §1
(§2) Stock S180 sarcoma cells were incubated in DMEM/F12 medium supplemented with 10% fetal bovine serum, 37° C., 5% CO2 for 72 hrs, then washed 3-4 times with Hank's solution at room temperature. Adjust the cell concentration to 1-2×10^9 per litre with Hank's solution. […] The mice were killed by cervical vertebra dislocation. Vigorously growing and non-disrupted tumor masses were harvested and washed clean with sterile saline. The tissue was dispersed in saline to a homogenous cell suspension, in a ratio of 1 g tissue to 4 ml saline. The sarcoma bearing mice model was prepared with an injection of 0.2 ml cell suspension through the armpit. Administration of test substance treatment started as described in section Method 1.
2.1 The effect of peptides on the phagocytotic function of mononuclear phagocyte in mice with S180 sarcoma was analysed by injecting mice from the tail vein with 0.1 ml/10 g body weight of Indian ink (1:5 dilution with normal saline) on the second day after the last test substance administration. At one minute and five minutes after the injection, 20 μl blood was obtained from the eye canthus with heparinised tubing. The blood was mixed with 2 ml 0.1% w/v Na2CO3 and then OD680 nm obtained. The outline clear index K was calculated by the following formula: K=(lgA1−lgA2)÷(t2−t1)
After the phagocytosis index study, the mice were killed by cervical vertebra dislocation. The liver, spleen, and cancer tissue were dissected, blotted dry, and weighed. The phagocytosis index a was calculated as below: α=(^3√{square root over ( )}K)×(W÷WLS)

S180 sarcoma = experiment: Growth of transplanted S180 sarcoma; type: in vivo, BALB/c mice; details: for Tumor weight: saline 1.29 ± 0.50
Experimental: as §1, §2
2.2 The Tumor Growth Inhibition Index was Calculated According to the Following Formula: Tumor growth inhibition index=(mean tumor weight of control group−mean tumor weight of treatment group)÷mean tumor weight of control group 3.

[3] = dose 50 μg/kg i.p. once per day
[4] = dose 0.5 μg/kg i.p. once per day
[5] = dose 500 μg/kg i.p. once per day
[6] = controls: IL-2, IFN-γ 3 × 10^5 IU/kg, cyclophosphamide 20 mg/kg

Molecule: IGMESAGIHETTY [CMS016]
- B16 metastatic foci in the lung, postmortem examination (B16 melanoma; 5 μg/kg/day): did not show any sign of existence of B16 metastatic foci in the lung
- B16 metastatic foci in the lung, postmortem examination (B16 melanoma; 500 μg/kg/day): did not show any sign of existence of B16 metastatic foci in the lung

Molecule: KAVGHLDDLPGAL [CMS008]
- Survival index (%) ([1]; dose 5 μg/kg i.p. once per day): 67.8%
- Survival days ([1]; dose 5 μg/kg i.p. once per day): 50.7 ± 20.9*^& days
- B16 metastatic foci in the lung, postmortem examination (B16 melanoma; 0.5 μg/kg/day): did not show any sign of existence of B16 metastatic foci in the lung
- B16 metastatic foci in the lung, postmortem examination (B16 melanoma; 5 μg/kg/day): did not show any sign of existence of B16 metastatic foci in the lung
- B16 metastatic foci in the lung, postmortem examination (B16 melanoma; 50 μg/kg/day): did not show any sign of existence of B16 metastatic foci in the lung

Molecule: PTTKTYFPHF [CMS001]
- serum DHBV DNA titre upon termination of treatment ([2]; 50 μg/kg/day i.p. for 4 weeks, then one week observation): rebounded to a value with no statistical difference from that before treatment
- DHBV DNA level (Mean ± Standard Deviation) ([2]; Day 0 (before treatment), CMS001 50 μg/kg/day i.p., lamivudine 50 mg/kg/day oral, saline 26 ± 12): 21 ± 18 10^3 units
- DHBV DNA level (Mean ± Standard Deviation) ([2]; Day 7, CMS001 50 μg/kg/day i.p., lamivudine 50 mg/kg/day oral, saline 45 ± 31): 11 ± 13 10^3 units
- DHBV DNA level (Mean ± Standard Deviation) ([2]; Day 14, CMS001 50 μg/kg/day i.p., lamivudine 50 mg/kg/day oral, saline 49 ± 23): 20 ± 18 10^3 units
- DHBV DNA level (Mean ± Standard Deviation) ([2]; Day 21, CMS001 50 μg/kg/day i.p., lamivudine 50 mg/kg/day oral, saline 102 ± 66): 14 ± 14 10^3 units
- DHBV DNA level (Mean ± Standard Deviation) ([2]; Day 28 (end of 4 weeks treatment), CMS001 50 μg/kg/day i.p., lamivudine 50 mg/kg/day oral, saline 60 ± 38): 5 ± 3* 10^3 units
- DHBV DNA level (Mean ± Standard Deviation) ([2]; Day 35 (one week after termination of treatment), saline 50 ± 43): 18 ± 16 10^3 units
- Phagocytosis index (mononuclear phagocyte; dose 5 μg/kg i.p. once per day): 6.67 ± 0.43*^
- Phagocytosis index (mononuclear phagocyte; [3]): 6.24 ± 0.33*^

Molecule: Phe Gln Gln Gln (FQQQ; printed: Phe Gln Gln Gln) [CMS032]
- Survival index (%) [1, 4]: 63.3%
- Survival days [1, 4]: 42.8 ± 12.2*^^&$ days

Molecule: Phe Val Asn Asp (FVND; listed as Sus scrofa) [CMS035]
- Tumor inhibition index (%) (S180 sarcoma; dose 5 μg/kg i.p. once per day): 44.6%
- Tumor weight (S180 sarcoma; dose 5 μg/kg i.p. once per day): 0.71 ± 0.37 g

Molecule: Pro Gln Asn Phe (PQNF; printed: Pro Gln Asn Phe) [CMS034]
- Tumor inhibition index (%) (S180 sarcoma; [4]): 35.9%
- Tumor weight (S180 sarcoma; [4]): 0.83 ± 0.48 g
- Phagocytosis index (mononuclear phagocyte; [4]): 6.35 ± 1.02
- Phagocytosis index (mononuclear phagocyte; dose 5 μg/kg i.p. once per day): 6.20 ± 0.44*^

Molecule: RVAPQQHPTL [CMS011]
- Survival index (%) ([1]; dose 5 μg/kg i.p. once per day): 60.2%
- Survival days ([1]; dose 5 μg/kg i.p. once per day): 36.4 ± 22.2*^& days

Molecule: Tyr Ser Leu (YSL; listed as Sus scrofa) [CMS024]
- postmortem examination of the mice surviving longer than 90 days ([1]; 0.5 μg/kg/day): did not show sign of tumor establishment
- mice that could survive longer than 90 days ([1]; 0.5 μg/kg/day, n=6, two months after the experiment ended): more than 30%
- Survival index (%) [1, 4]: 76.9%
- Survival days [1, 4]: 46.4 ± 14.8*^^&$ days
- Survival index (%) ([1]; dose 5 μg/kg i.p. once per day): 54.8%
- Survival days ([1]; dose 5 μg/kg i.p. once per day): 40.6 ± 14.6*^&$ days
- Survival index (%) [1, 3]: 38.4%
- Survival days [1, 3]: 36.3 ± 12.7*^&$ days

Molecule: VAPEEHPTLLTEAPLNPK [CMS010]
- Tumor inhibition index (%) (S180 sarcoma; [5]): 48.4%
- Tumor weight (S180 sarcoma; [5]): 0.67 ± 0.35 g

B1: IFN-γ: recombinant mouse IFN-γ (rmIFN-γ), Beijing Biotech Inc.; positive control (protein, UniProt P01580 23-155, looked up)
Interferon gamma: HGTVIESLESLNNYFNSSGIDVEEKSLFLDIWRNWQKDGDMKILQSQIISFYLRLFEVLKDNQAISNNISVIESHLITTFFSNSKAKKDAFMSIAKFEVNNPQVQRQAFNELIRVVHQLLPESSLRKRKRSRC
- Survival index (%) ([1]; control rmIFN-γ 3 × 10^5 IU/kg): 6.1%
- Survival days ([1]; controls: rhIL-2, rmIFN-γ 3 × 10^5 IU/kg, cyclophosphamide 20 mg/kg): 27.8 ± 7.5 days
- Tumor inhibition index (%) (S180 sarcoma; [6]): 25.3%
- Tumor weight (S180 sarcoma; [6]): 0.96 ± 0.45 g
- Phagocytosis index (mononuclear phagocyte; [6]): 5.45 ± 0.71
